The target of one test is T1, human GLP1R (Homo sapiens, UniProt P43220).
T1 construct: expressed in transfected cells; kept under Blasticidin and Hygromycin selection
The test can be described thus: cAMP activity assay, cells expressing human GLP1R. The format is cell-based. The note with it: cAMP production, assay buffer with or without 20% human serum (not stated which). The method, boiled down:
(§1)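 Peptides as 10-point titrations from DMSO tested on cells expressing human GLP1R or GCGR. cAMP measured by luminescent kit after overnight room-temperature incubation in the dark. EC50 from four-parameter logistic fit; native GLP-1 and glucagon as controls.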
A general note: Changes in cAMP serve as a functional read-out for many G protein-coupled receptors.

A further test concerns the target T2, human GCGR (Homo sapiens, UniProt P47871).
T2 construct: expressed in transfected cells; kept under Blasticidin and Hygromycin selection
The test can be described thus: cAMP activity assay, cells expressing human GCGR. The format is cell-based. The note with it: for EC50: cAMP production, cells expressing human GCGR, assay buffer with or without 20% human serum (not stated which), read-out: GCGR EC50 human; for hGCGR/hGLP1R (hTone): ratio of human GCGR EC50 to human GLP1R EC50. The method, boiled down:
as §1

Usually EC50 stands for the concentration needed to bring the measured effect to its halfway point.

Each structure is given as a SMILES string. Starred links: 1 amine or outer side, 2 acyl side, 3 side chain; linkers in the order of their positions; H or OH if unused. Non-standard residues stand in square brackets, D forms with d. Residues, ends and D or L forms follow the SMILES beside them. Groups on a side chain read outwards from the residue. *: point of attachment. Phe(4-CH2NH2) = NCc1ccc(C[C@H](N)C(=O)O)cc1; C18 diacid = O=C(O)CCCCCCCCCCCCCCCCC(=O)*; γGlu = O=C(O)[C@H](CCC(=O)[*:2])N[*:1]; X1 = O=C([C@H]1CCC[C@@H]1N[*:1])[*:2]; Met(O2) = CS(=O)(=O)CC[C@H](N)C(=O)O; αMeD = C[C@](N)(CC(=O)O)C(=O)O; AEEA = NCCOCCOCC(=O)O; Aib = CC(C)(N)C(=O)O

T1 sequence (P43220 24-463): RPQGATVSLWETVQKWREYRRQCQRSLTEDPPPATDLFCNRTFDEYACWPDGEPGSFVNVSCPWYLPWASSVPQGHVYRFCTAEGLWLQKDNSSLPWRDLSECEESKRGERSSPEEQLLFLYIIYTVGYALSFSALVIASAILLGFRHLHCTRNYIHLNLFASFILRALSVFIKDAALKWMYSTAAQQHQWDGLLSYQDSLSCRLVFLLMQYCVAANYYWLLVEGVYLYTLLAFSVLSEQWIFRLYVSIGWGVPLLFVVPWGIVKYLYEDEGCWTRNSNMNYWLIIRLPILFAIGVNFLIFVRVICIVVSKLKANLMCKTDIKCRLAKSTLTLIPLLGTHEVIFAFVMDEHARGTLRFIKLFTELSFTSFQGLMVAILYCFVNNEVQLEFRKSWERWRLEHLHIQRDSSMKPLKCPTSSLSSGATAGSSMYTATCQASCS
T2 sequence (P47871 26-477): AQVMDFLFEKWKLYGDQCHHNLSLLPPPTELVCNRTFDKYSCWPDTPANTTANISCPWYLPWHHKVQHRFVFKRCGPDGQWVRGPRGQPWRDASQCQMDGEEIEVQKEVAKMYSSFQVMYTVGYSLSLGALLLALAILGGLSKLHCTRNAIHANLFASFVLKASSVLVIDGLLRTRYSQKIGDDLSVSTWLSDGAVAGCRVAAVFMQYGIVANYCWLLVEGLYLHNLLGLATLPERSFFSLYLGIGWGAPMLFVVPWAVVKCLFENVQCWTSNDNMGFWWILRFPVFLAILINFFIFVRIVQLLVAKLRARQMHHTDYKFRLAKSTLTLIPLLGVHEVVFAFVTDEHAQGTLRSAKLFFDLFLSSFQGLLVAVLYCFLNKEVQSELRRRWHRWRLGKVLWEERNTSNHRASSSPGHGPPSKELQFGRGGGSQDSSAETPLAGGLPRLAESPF

Regarding `CC(C)C[C@H](NC(=O)[C@H](Cc1ccc(O)cc1)NC(=O)[C@H](CCCCN)NC(=O)[C@H](CO)NC(=O)[C@H](Cc1ccc(CNC(=O)COCCOCCNC(=O)COCCOCCNC(=O)CC[C@H](NC(=O)CCCCCCCCCCCCCCCCC(=O)O)C(=O)O)cc1)NC(=O)[C@H](CC(=O)O)NC(=O)[C@H](CO)NC(=O)[C@@H](NC(=O)[C@H](Cc1ccccc1)NC(=O)[C@@H](NC(=O)CNC(=O)[C@H](CCC(N)=O)NC(=O)C(C)(C)NC(=O)[C@@H](N)Cc1c[nH]cn1)[C@@H](C)O)[C@@H](C)O)C(=O)N[C@@H](CC(=O)O)C(=O)N[C@@H](C)C(=O)N[C@@H](CCCNC(=N)N)C(=O)N[C@@H](C)C(=O)N[C@@H](C)C(=O)N[C@@H](CCC(N)=O)C(=O)N[C@@H](CC(=O)O)C(=O)N[C@@H](Cc1ccccc1)C(=O)N[C@H](C(=O)N[C@@H](CCC(N)=O)C(=O)N[C@@H](Cc1c[nH]c2ccccc12)C(=O)N[C@@H](CC(C)C)C(=O)N[C@@H](CCS(C)(=O)=O)C(=O)N[C@@H](CC(=O)O)C(=O)N[C@H](C(N)=O)[C@@H](C)O)C(C)C` [compound 28] (H-H[Aib]QGTFTSD[Phe(4-CH2NH2)]([AEEA-AEEA-γGlu-C18 diacid])SKYLDARAAQDFVQWL[Met(O2)]DT-NH2), the EC50 at human GLP1R stood at 0.14 nM. In addition, at human GCGR, the EC50 came to 0.43 nM and the “hGCGR/hGLP1R (hTone)” value is reported as 3.11.

Take `CC(C)C[C@H](NC(=O)[C@H](Cc1ccc(O)cc1)NC(=O)[C@H](CCCCN)NC(=O)[C@H](CO)NC(=O)[C@H](Cc1ccc(O)cc1)NC(=O)[C@H](CC(=O)O)NC(=O)[C@H](CO)NC(=O)[C@@H](NC(=O)[C@H](Cc1ccccc1)NC(=O)[C@@H](NC(=O)CNC(=O)[C@H](CCC(N)=O)NC(=O)C(C)(C)NC(=O)[C@@H](N)Cc1c[nH]cn1)[C@@H](C)O)[C@@H](C)O)C(=O)N[C@@H](CC(=O)O)C(=O)N[C@@H](C)C(=O)N[C@@H](CCCNC(=N)N)C(=O)N[C@@H](C)C(=O)N[C@@H](C)C(=O)N[C@@H](CCCCNC(=O)COCCOCCNC(=O)COCCOCCNC(=O)CC[C@H](NC(=O)CCCCCCCCCCCCCCCCC(=O)O)C(=O)O)C(=O)N[C@@H](CC(=O)O)C(=O)N[C@@H](Cc1ccccc1)C(=O)N[C@H](C(=O)N[C@@H](CCC(N)=O)C(=O)N[C@@H](Cc1c[nH]c2ccccc12)C(=O)N[C@@H](CC(C)C)C(=O)N[C@@H](CCS(C)(=O)=O)C(=O)N[C@@H](CC(=O)O)C(=O)N[C@H](C(N)=O)[C@@H](C)O)C(C)C` [compound 29] (H-H[Aib]QGTFTSDYSKYLDARAAK([AEEA-AEEA-γGlu-C18 diacid])DFVQWL[Met(O2)]DT-NH2; N-terminus assumed): the EC50 turned out to be 0.27 nM at human GLP1R and 0.79 nM at human GCGR. In addition, the “hGCGR/hGLP1R (hTone)” value at human GCGR came to 2.93.

For the compound `CC(C)C[C@H](NC(=O)[C@H](Cc1ccc(O)cc1)NC(=O)[C@H](CCCCN)NC(=O)[C@H](CO)NC(=O)[C@H](Cc1ccc(O)cc1)NC(=O)[C@H](CC(=O)O)NC(=O)[C@H](CO)NC(=O)[C@@H](NC(=O)[C@H](Cc1ccccc1)NC(=O)[C@@H](NC(=O)CNC(=O)[C@H](CCC(N)=O)NC(=O)C(C)(C)NC(=O)[C@@H](N)Cc1c[nH]cn1)[C@@H](C)O)[C@@H](C)O)C(=O)N[C@@H](CC(=O)O)C(=O)N[C@@H](C)C(=O)N[C@@H](CCCNC(=N)N)C(=O)N[C@@H](C)C(=O)N[C@@H](C)C(=O)N[C@@H](CCC(N)=O)C(=O)N[C@@H](CCCCNC(=O)COCCOCCNC(=O)COCCOCCNC(=O)CC[C@H](NC(=O)CCCCCCCCCCCCCCCCC(=O)O)C(=O)O)C(=O)N[C@@H](Cc1ccccc1)C(=O)N[C@H](C(=O)N[C@@H](CCC(N)=O)C(=O)N[C@@H](Cc1c[nH]c2ccccc12)C(=O)N[C@@H](CC(C)C)C(=O)N[C@@H](CCS(C)(=O)=O)C(=O)N[C@@H](CC(=O)O)C(=O)N[C@H](C(N)=O)[C@@H](C)O)C(C)C` [compound 30] (H-H[Aib]QGTFTSDYSKYLDARAAQK([AEEA-AEEA-γGlu-C18 diacid])FVQWL[Met(O2)]DT-NH2), the EC50 on human GLP1R is 0.06 nM. At human GCGR, the EC50 was 0.1 nM and the “hGCGR/hGLP1R (hTone)” value stood at 1.66.

On to `CC(C)C[C@H](NC(=O)[C@H](Cc1ccc(O)cc1)NC(=O)[C@H](CCCCN)NC(=O)[C@H](CO)NC(=O)[C@H](Cc1ccc(O)cc1)NC(=O)[C@H](CC(=O)O)NC(=O)[C@H](CO)NC(=O)[C@@H](NC(=O)[C@H](Cc1ccccc1)NC(=O)[C@@H](NC(=O)CNC(=O)[C@H](CCC(N)=O)NC(=O)C(C)(C)NC(=O)[C@@H](N)Cc1c[nH]cn1)[C@@H](C)O)[C@@H](C)O)C(=O)N[C@@H](CC(=O)O)C(=O)N[C@@H](C)C(=O)N[C@@H](CCCNC(=N)N)C(=O)N[C@@H](C)C(=O)N[C@@H](C)C(=O)N[C@@H](Cc1ccc(CNC(=O)COCCOCCNC(=O)COCCOCCNC(=O)CC[C@H](NC(=O)CCCCCCCCCCCCCCCCC(=O)O)C(=O)O)cc1)C(=O)N[C@@H](CC(=O)O)C(=O)N[C@@H](Cc1ccccc1)C(=O)N[C@H](C(=O)N[C@@H](CCC(N)=O)C(=O)N[C@@H](Cc1c[nH]c2ccccc12)C(=O)N[C@@H](CC(C)C)C(=O)N[C@@H](CC(C)C)C(=O)N[C@@H](CC(=O)O)C(=O)N[C@H](C(N)=O)[C@@H](C)O)C(C)C` [compound 31] (H-H[Aib]QGTFTSDYSKYLDARAA[Phe(4-CH2NH2)]([AEEA-AEEA-γGlu-C18 diacid])DFVQWLLDT-NH2), for which the EC50 on human GLP1R was found to be 0.37 nM. Also, on human GCGR, the EC50 turned out to be 0.26 nM and the “hGCGR/hGLP1R (hTone)” value is 0.70.

In turn, `CC(C)C[C@H](NC(=O)[C@H](Cc1ccc(O)cc1)NC(=O)[C@H](CCCCN)NC(=O)[C@H](CO)NC(=O)[C@H](Cc1ccc(O)cc1)NC(=O)[C@H](CC(=O)O)NC(=O)[C@H](CO)NC(=O)[C@@H](NC(=O)[C@H](Cc1ccccc1)NC(=O)[C@@H](NC(=O)CNC(=O)[C@H](CCC(N)=O)NC(=O)C(C)(C)NC(=O)[C@@H](N)Cc1c[nH]cn1)[C@@H](C)O)[C@@H](C)O)C(=O)N[C@@H](CC(=O)O)C(=O)N[C@@H](C)C(=O)N[C@@H](CCCNC(=N)N)C(=O)N[C@@H](C)C(=O)N[C@@H](C)C(=O)N[C@@H](CCC(N)=O)C(=O)N[C@@H](Cc1ccc(CNC(=O)COCCOCCNC(=O)COCCOCCNC(=O)CC[C@H](NC(=O)CCCCCCCCCCCCCCCCC(=O)O)C(=O)O)cc1)C(=O)N[C@@H](Cc1ccccc1)C(=O)N[C@H](C(=O)N[C@@H](CCC(N)=O)C(=O)N[C@@H](Cc1c[nH]c2ccccc12)C(=O)N[C@@H](CC(C)C)C(=O)N[C@@H](CC(C)C)C(=O)N[C@@H](CC(=O)O)C(=O)N[C@H](C(N)=O)[C@@H](C)O)C(C)C` [compound 32] (H-H[Aib]QGTFTSDYSKYLDARAAQ[Phe(4-CH2NH2)]([AEEA-AEEA-γGlu-C18 diacid])FVQWLLDT-NH2; N-terminus assumed) showed an EC50 on human GLP1R of 0.028 nM. Further, on human GCGR, the EC50 came out at 0.07 nM and the “hGCGR/hGLP1R (hTone)” value was found to be 2.52.

With `CC(C)C[C@H](NC(=O)[C@H](Cc1ccc(O)cc1)NC(=O)[C@H](CCCCN)NC(=O)[C@H](CO)NC(=O)[C@H](Cc1ccc(O)cc1)NC(=O)[C@H](CC(=O)O)NC(=O)[C@H](CO)NC(=O)[C@@H](NC(=O)[C@H](Cc1ccccc1)NC(=O)[C@@H](NC(=O)CNC(=O)[C@H](CCC(N)=O)NC(=O)C(C)(C)NC(=O)[C@@H](N)Cc1c[nH]cn1)[C@@H](C)O)[C@@H](C)O)C(=O)N[C@@H](CC(=O)O)C(=O)N[C@@H](C)C(=O)N[C@@H](CCCNC(=N)N)C(=O)N[C@@H](C)C(=O)N[C@@H](C)C(=O)N[C@@H](CCCCNC(=O)COCCOCCNC(=O)COCCOCCNC(=O)CC[C@H](NC(=O)CCCCCCCCCCCCCCCCC(=O)O)C(=O)O)C(=O)N[C@@H](CC(=O)O)C(=O)N[C@@H](Cc1ccccc1)C(=O)N[C@H](C(=O)N[C@@H](CCC(N)=O)C(=O)N[C@@H](Cc1c[nH]c2ccccc12)C(=O)N[C@@H](CC(C)C)C(=O)N[C@@H](CCS(C)(=O)=O)C(=O)N[C@@](C)(CC(=O)O)C(=O)N[C@H](C(N)=O)[C@@H](C)O)C(C)C` [compound 33] (H-H[Aib]QGTFTSDYSKYLDARAAK([AEEA-AEEA-γGlu-C18 diacid])DFVQWL[Met(O2)][αMeD]T-NH2), the EC50 at human GLP1R was 0.07 nM. Further, at human GCGR, the EC50 was 0.3 nM and the “hGCGR/hGLP1R (hTone)” value worked out at 4.00.

Turning to `CC(C)C[C@H](NC(=O)[C@H](Cc1ccc(O)cc1)NC(=O)[C@H]1CCC[C@@H]1NC(=O)[C@H](CO)NC(=O)[C@H](Cc1ccc(O)cc1)NC(=O)[C@H](CC(=O)O)NC(=O)[C@H](CO)NC(=O)[C@@H](NC(=O)[C@H](Cc1ccccc1)NC(=O)[C@@H](NC(=O)CNC(=O)[C@H](CCC(N)=O)NC(=O)C(C)(C)NC(=O)[C@@H](N)Cc1c[nH]cn1)[C@@H](C)O)[C@@H](C)O)C(=O)N[C@@H](CC(=O)O)C(=O)NC(C)(C)C(=O)N[C@@H](CCCNC(=N)N)C(=O)N[C@@H](C)C(=O)N[C@@H](C)C(=O)N[C@@H](CCCCNC(=O)COCCOCCNC(=O)COCCOCCNC(=O)CC[C@H](NC(=O)CCCCCCCCCCCCCCCCC(=O)O)C(=O)O)C(=O)N[C@@H](CC(=O)O)C(=O)N[C@@H](Cc1ccccc1)C(=O)N[C@H](C(=O)N[C@H]1CCC[C@@H]1C(=O)N[C@@H](Cc1c[nH]c2ccccc12)C(=O)N[C@@H](CC(C)C)C(=O)N[C@@H](CCS(C)(=O)=O)C(=O)N[C@@H](CC(=O)O)C(=O)N[C@H](C(N)=O)[C@@H](C)O)C(C)C` [compound 34] (H-H[Aib]QGTFTSDYS[X1]YLD[Aib]RAAK([AEEA-AEEA-γGlu-C18 diacid])DFV[X1]WL[Met(O2)]DT-NH2; N-terminus assumed), the EC50 at human GLP1R stood at 1.2 nM; at human GCGR, 0.64 nM. Moreover, the “hGCGR/hGLP1R (hTone)” value at human GCGR was determined as 0.53.

Source of the values: patent US11492385B2, “Long-acting co-agonists of the glucagon and GLP-1 receptors” (Merck Sharp & Dohme Corp., priority 2015, dated 2022).
